Results taken from patent US20160038518A1, “METHODS FOR TREATING PSORIASIS AND VASCULAR INFLAMMATION” (VASCULAR BIOGENICS LTD., priority 2012, published 2016).
“And” between values parts separate entries of the source, which are not always exact repeats. Identical values can stand only once. Like-named read-outs stand apart in the source and are kept apart here.

Experiments:
[1] = tested on: LPS and Pam3CSK4 signaling; assay: LPS and Pam3CSK4 signaling in human monocytes; format: cell-based; settings: FIG. 1B
[2] = tested on: moderate to severe plaque psoriasis; assay: randomized, double-blind Phase II clinical study in plaque psoriasis (PGA, PtGA, PASI); format: in vivo, human; settings: for average reduction of PASI score: 12 weeks
Experimental: Patients were screened for eligibility and, up to 28 days later, at the baseline visit, randomized to one of three treatment groups (1:1:1): VB-201 20 mg/day: VB-201 80 mg/day: placebo/day. Patients consumed 2 capsules per day (VB-201 20 mg+placebo, VB-201 40 mg+40 mg, or 2× placebo). To ensure that the treatment assignments were concealed, all patients received 2 matching capsules of VB-201 or placebo.
The efficacy analyses were performed on the data from a modified intention-to-treat (MITT) population (defined as all patients randomized who received at least one dose of medication and had at least one efficacy evaluation). The safety analyses were performed on all randomized patients who received at least one dose of the drug.
A randomized, double-blind Phase II clinical study was performed in subjects with moderate to severe plaque psoriasis, in order to determine the efficacy of VB-201 in treating this condition. […] Patients underwent a wash-out period following any previous treatments. After screening and establishment of a baseline, eligible subjects were randomly assigned to receive 20 mg per day VB-201, 80 mg per day VB-201 or a daily placebo, for a period of 12 weeks.
Doses were administered orally at breakfast time with food. The maximal dose of VB-201 (80 mg/day) was determined according to earlier tolerability results (see, e.g., Example 4 of WO2011/083465).
Efficacy of each dosage level of VB-201 relative to placebo was determined according to the percentage of patients which achieved at least a 50% or 75% improvement over baseline PASI score at week 12.
Statistical comparisons were performed using a two-sided comparison with a 5% level of significance. All analyses were performed using Statistical Analysis Software (SAS®) Version 9.2.
Categorical analyses of Physician's Global Assessment and Patient's Psoriasis Global Assessment scores at Baseline, Week 8 and Week 12 were analyzed.
The Physician's Global Assessment (PGA) score was based on a 5-point scale with possible outcomes 0=clear, 1=almost clear, 2=mild, 3=moderate and 4=severe.
The Patient's Psoriasis Global Assessment (PtGA) score was based on a 6-point scale with possible outcomes 0=clear, 1=almost clear, 2=mild, 3=moderate, and 4 severe and 5=worst psoriasis has ever been.
The analyses that follow use the categorical nature of the PGA and PtGA, i.e. the 5-point or 6-point ordered scale which was considered more relevant than a continuous approach.
The proportion of patients with baseline, week 8 and week 12 PGA scores 0-3 vs. 4 (Clear or Almost Clear or Mild or Moderate vs. Severe) and PtGA scores of 0-2 vs. 3-5 (Clear or Almost Clear or Mild vs. Moderate or Severe or Worse).
Pairwise comparisons between placebo and each active dose group was made using Fisher's exact tests at the 5% level of significance.

[3] = Experimental: Additional criteria included change in affected body surface area from baseline to week 12, change in PGA score from baseline to week 12, any change relative to baseline PASI score, and change in Patient Psoriasis Global Assessment (PtGA) score from baseline to week 12. Blood samples were taken at weeks 4, 8 and 12, in order to assess VB-201 pharmacokinetics, as well as plasma cytokine levels. Safety of VB-201 administration was evaluated by physical examination, incidence of adverse effects, vital signs, clinical chemistry, hematology, urinalysis and electrocardiograms.

## CCCCCCCCCCCCCCCCOC[C@H](COP(=O)([O-])OCC[N+](C)(C)C)OCCCCC(=O)O [VB-201, 1-hexadecyl-2-(4′-carboxy)butyl-sn-glycero-3-phosphocholine]
[1]
  inhibition of LPS and Pam3CSK4 signaling: inhibition of LPS and Pam3CSK4 signaling
[2]; 20 mg
  PGA decrease from baseline to week 12 versus placebo: statistically superior to that with placebo
[2]; 20 mg and 80 mg groups combined vs placebo, p=0.049, CI=1.00-3.65
  PGA odds ratio, ordered logistic regression under the proportional odds model: 1.91
[2]; 20 mg, p=0.12
  Patient Global Assessment decrease from baseline to week 12 versus placebo: trend for efficacy
[2]; 20 mg/day, Baseline
  PGA 0-3 (No/Almost Clear/Mild/Mod), % of patients: 83.87%
  PGA 0-3 (No/Almost Clear/Mild/Mod), Freq.: 52
  PGA 4 (Severe), % of patients: 16.13%
  PGA 4 (Severe), Freq.: 10
  PtGA 0-2 (No/Almost Clear/Mild), % of patients: 11.29%
  PtGA 0-2 (No/Almost Clear/Mild), Freq.: 7
  PtGA 3-5 (Mod/Severs/Worse), % of patients: 88.71%
  PtGA 3-5 (Mod/Severs/Worse), Freq.: 55
[2]; 20 mg/day, Week 8
  PGA 0-3 (No/Almost Clear/Mild/Mod), % of patients: 96.8%
  PGA 0-3 (No/Almost Clear/Mild/Mod), Freq.: 60
  PGA 4 (Severe), % of patients: 3.2% and 3.23%
  PGA 4 (Severe), Freq.: 2
  PtGA 0-2 (No/Almost Clear/Mild), % of patients: 32.26%
  PtGA 0-2 (No/Almost Clear/Mild), Freq.: 20
  PtGA 3-5 (Mod/Severs/Worse), % of patients: 67.74%
  PtGA 3-5 (Mod/Severs/Worse), Freq.: 42
[2]; 20 mg/day, Week 12/EOT
  PGA 0-3 (No/Almost Clear/Mild/Mod), % of patients: 95.16%
  PGA 0-3 (No/Almost Clear/Mild/Mod), Freq.: 59
  PGA 4 (Severe), % of patients: 4.8% and 4.84%
  PGA 4 (Severe), Freq.: 3
  PtGA 0-2 (No/Almost Clear/Mild), % of patients: 30.65%
  PtGA 0-2 (No/Almost Clear/Mild), Freq.: 19
  PtGA 3-5 (Mod/Severs/Worse), % of patients: 69.35%
  PtGA 3-5 (Mod/Severs/Worse), Freq.: 43
[2]; 80 mg
  PGA decrease from baseline to week 12 versus placebo: trend for efficacy
[2]; 80 mg vs. placebo, p=0.047, CI=1.01-3.80
  Patient Global Assessment odds ratio, ordered logistic regression under the proportional odds model: 1.96
[2]; 80 mg, p=0.02
  Patient Global Assessment decrease from baseline to week 12 versus placebo: statistically superior to that with placebo
[2]; 80 mg/day, Baseline
  PGA 0-3 (No/Almost Clear/Mild/Mod), % of patients: 79.31%
  PGA 0-3 (No/Almost Clear/Mild/Mod), Freq.: 46
  PGA 4 (Severe), % of patients: 20.69%
  PGA 4 (Severe), Freq.: 12
  PtGA 0-2 (No/Almost Clear/Mild), % of patients: 11.86%
  PtGA 0-2 (No/Almost Clear/Mild), Freq.: 7
  PtGA 3-5 (Mod/Severs/Worse), % of patients: 88.14%
  PtGA 3-5 (Mod/Severs/Worse), Freq.: 52
[2]; 80 mg/day, Week 8
  PGA 0-3 (No/Almost Clear/Mild/Mod), % of patients: 91.53%
  PGA 0-3 (No/Almost Clear/Mild/Mod), Freq.: 54
  PGA 4 (Severe), % of patients: 8.5% and 8.47%
  PGA 4 (Severe), Freq.: 5
  PtGA 0-2 (No/Almost Clear/Mild), % of patients: 33.90%
  PtGA 0-2 (No/Almost Clear/Mild), Freq.: 20
  PtGA 3-5 (Mod/Severs/Worse), % of patients: 66.1%
  PtGA 3-5 (Mod/Severs/Worse), Freq.: 39
[2]; 80 mg/day, Week 12/EOT
  PGA 0-3 (No/Almost Clear/Mild/Mod), % of patients: 93.22%
  PGA 0-3 (No/Almost Clear/Mild/Mod), Freq.: 55
  PGA 4 (Severe), % of patients: 6.8% and 6.78%
  PGA 4 (Severe), Freq.: 4
  PtGA 0-2 (No/Almost Clear/Mild), % of patients: 38.98%
  PtGA 0-2 (No/Almost Clear/Mild), Freq.: 23
  PtGA 3-5 (Mod/Severs/Worse), % of patients: 61.0% and 61.02%
  PtGA 3-5 (Mod/Severs/Worse), Freq.: 36
[2]; PGA p=0.04, PtGA p=0.001, FIG. 10
  correlation between VB-201 plasma levels and PASI, PGA and PtGA efficacy endpoints: statistically significant dose response
[2]; baseline PASI 14.3-18.5, age ≦46 years, BSA 16%-24%, psoriasis up to 20 years, no previous immunosuppressants or biologicals, elevated baseline hs-CRP
  efficacy compared to placebo in subgroups (exploratory analyses): greater trends for efficacy
[2]; over 3 months of treatment
  time course of the efficacy endpoints: continued to improve overtime and had not reached a plateau at 3 months
[2]; patients in quartile 1 of trough level
  average reduction of PASI score: about 18%
[2]; patients in quartile 4 of trough level, p=0.009
  average reduction of PASI score: about 45%
[2]; sub-population with baseline PASI score of about 14.3 to about 18.5, FIG. 9
  percent change from baseline in PASI at 12 weeks versus trough level: significantly dependent on the trough level of VB-201
[2]; week 12
  PASI 50 response rates and reductions in BSA compared to placebo: Trends for favorable efficacy
[3]; patients in quartile 1
  mean VB-201 trough level: about 0 ng/mL
[3]; patients in quartile 4
  mean VB-201 trough level: about 3,640 ng/mL
